Consider 13 compounds from patent US11447466B2, “Substituted indole compounds useful as inhibitors of TLR7/8/9” (BRISTOL-MYERS SQUIBB COMPANY, priority 2017, dated 2022).

Format in all cases: cell-based
One assay deals with T1, human TLR7 (Homo sapiens, UniProt Q9NYK1).
T1 construct: host or cells: HEK-Blue cells
T1 sequence (Q9NYK1 27-1049): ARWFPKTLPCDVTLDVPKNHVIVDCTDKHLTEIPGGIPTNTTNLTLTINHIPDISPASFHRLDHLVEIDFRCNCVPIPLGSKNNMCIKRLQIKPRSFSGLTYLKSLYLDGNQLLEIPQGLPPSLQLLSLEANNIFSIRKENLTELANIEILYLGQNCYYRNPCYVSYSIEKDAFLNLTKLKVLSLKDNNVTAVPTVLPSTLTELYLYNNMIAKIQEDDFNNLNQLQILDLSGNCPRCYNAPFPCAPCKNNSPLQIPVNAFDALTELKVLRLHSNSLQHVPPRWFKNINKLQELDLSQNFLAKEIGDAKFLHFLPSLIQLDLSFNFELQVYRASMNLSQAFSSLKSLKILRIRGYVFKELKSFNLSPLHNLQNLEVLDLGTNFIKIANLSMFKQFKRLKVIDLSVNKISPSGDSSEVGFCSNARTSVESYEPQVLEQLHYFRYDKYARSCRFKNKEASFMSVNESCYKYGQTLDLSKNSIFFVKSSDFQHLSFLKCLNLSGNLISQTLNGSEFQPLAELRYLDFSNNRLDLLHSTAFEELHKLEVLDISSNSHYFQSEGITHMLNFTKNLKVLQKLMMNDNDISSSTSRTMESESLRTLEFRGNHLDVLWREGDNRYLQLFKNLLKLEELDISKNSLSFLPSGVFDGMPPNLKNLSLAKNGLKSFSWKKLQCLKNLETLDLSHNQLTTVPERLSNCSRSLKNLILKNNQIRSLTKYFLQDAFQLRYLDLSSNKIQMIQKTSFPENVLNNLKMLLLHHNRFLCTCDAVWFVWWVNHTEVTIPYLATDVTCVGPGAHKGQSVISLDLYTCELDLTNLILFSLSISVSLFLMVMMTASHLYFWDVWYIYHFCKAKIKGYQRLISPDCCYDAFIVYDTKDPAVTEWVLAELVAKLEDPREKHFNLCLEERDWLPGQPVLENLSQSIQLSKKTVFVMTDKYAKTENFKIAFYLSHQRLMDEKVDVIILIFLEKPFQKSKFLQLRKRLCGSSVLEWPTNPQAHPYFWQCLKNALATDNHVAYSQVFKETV
Briefly: TLR7 inhibition reporter assay (HEK-Blue SEAP reporter, gardiquimod stimulation). Particulars: HEK-Blue cells overexpressing human TLR7, SEAP reporter, gardiquimod 7.5 μM, 22 hour incubation. The gist of the method:
(§1)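 Compound treatment: 30 min, RT, 0.05 nM–50 μM final. Agonist: TLR7 gardiquimod 7.5 μM; TLR8 R848 15.9 μM; TLR9 ODN2006 5 nM. Incubation 22 h, 37 °C, 5% CO2. Readout SEAP, HEK-Blue Detection.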
Background: A reporter such as luciferase makes a cellular process visible.

Another assay deals with T2, human TLR9 (Homo sapiens, UniProt Q9NR96).
T2 construct: host or cells: HEK-Blue cells
T2 sequence (Q9NR96 26-1032): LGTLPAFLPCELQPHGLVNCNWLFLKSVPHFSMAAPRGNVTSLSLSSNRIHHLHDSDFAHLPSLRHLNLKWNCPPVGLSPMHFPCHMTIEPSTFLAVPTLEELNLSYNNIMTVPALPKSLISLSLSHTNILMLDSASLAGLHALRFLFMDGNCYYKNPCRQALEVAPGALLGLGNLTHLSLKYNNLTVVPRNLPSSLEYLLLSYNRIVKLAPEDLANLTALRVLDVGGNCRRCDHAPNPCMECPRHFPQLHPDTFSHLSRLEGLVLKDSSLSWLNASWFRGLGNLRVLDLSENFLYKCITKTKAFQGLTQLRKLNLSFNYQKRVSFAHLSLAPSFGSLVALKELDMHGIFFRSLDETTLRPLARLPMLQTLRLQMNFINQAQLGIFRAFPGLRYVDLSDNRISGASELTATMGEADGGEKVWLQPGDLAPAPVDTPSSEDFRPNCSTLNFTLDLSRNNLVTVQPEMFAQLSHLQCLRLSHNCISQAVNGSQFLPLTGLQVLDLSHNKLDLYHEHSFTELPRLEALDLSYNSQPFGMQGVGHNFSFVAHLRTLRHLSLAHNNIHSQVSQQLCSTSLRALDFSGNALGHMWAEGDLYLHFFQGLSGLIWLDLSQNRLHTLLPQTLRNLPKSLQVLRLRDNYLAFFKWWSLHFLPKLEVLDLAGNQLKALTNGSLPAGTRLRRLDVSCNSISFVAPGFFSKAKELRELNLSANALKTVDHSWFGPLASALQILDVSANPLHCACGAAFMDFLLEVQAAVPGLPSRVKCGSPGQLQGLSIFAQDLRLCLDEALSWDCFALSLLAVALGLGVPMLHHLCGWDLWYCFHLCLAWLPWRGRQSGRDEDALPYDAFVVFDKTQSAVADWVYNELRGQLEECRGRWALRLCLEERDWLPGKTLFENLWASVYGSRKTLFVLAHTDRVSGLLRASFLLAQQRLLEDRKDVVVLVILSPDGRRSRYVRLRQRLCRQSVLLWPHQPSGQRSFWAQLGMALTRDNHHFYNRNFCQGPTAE
Briefly: TLR9 inhibition reporter assay (HEK-Blue SEAP reporter, ODN2006 stimulation). As to conditions: HEK-Blue cells overexpressing human TLR9, SEAP reporter, ODN2006 5 nM, 22 hour incubation. The procedure, abridged:
as §1

The target in the next assay is T3, human TLR8 (Homo sapiens, UniProt Q9NR97).
T3 construct: host or cells: HEK-Blue cells
T3 sequence (Q9NR97 27-1041): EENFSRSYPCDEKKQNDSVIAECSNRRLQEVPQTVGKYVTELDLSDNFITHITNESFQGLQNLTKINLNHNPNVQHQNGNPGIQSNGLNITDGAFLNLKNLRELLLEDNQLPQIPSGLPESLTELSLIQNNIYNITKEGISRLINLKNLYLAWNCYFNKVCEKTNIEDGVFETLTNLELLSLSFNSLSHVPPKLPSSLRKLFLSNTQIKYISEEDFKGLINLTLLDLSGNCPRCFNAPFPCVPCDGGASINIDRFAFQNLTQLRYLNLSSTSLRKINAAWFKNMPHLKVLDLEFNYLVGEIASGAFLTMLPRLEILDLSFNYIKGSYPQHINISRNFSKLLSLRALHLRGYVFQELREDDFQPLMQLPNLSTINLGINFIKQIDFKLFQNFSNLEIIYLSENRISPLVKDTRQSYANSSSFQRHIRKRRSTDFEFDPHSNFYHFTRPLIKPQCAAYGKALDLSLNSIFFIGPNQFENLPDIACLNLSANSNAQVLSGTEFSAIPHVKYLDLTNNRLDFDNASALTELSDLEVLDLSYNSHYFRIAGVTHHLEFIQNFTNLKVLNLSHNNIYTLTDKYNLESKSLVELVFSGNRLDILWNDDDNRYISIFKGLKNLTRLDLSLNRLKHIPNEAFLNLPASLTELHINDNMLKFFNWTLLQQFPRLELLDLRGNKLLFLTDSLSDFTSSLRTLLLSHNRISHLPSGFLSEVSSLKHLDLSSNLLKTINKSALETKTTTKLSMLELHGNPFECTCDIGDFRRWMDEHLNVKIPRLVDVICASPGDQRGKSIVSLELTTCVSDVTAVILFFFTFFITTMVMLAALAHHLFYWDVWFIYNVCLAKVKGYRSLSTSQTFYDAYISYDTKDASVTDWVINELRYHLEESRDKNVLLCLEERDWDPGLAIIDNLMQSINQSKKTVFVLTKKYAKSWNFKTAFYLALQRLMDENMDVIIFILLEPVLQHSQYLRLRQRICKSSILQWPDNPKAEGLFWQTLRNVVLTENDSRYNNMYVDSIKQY
Briefly: TLR8 inhibition reporter assay (HEK-Blue SEAP reporter, R848 stimulation). Particulars: HEK-Blue cells overexpressing human TLR8, SEAP reporter, R848 15.9 μM, 22 hour incubation. The gist of the method:
as §1

Broadly, the IC50 is the concentration at which inhibition is half-maximal. Lower therefore signals higher potency. Turning to `Cc1c(-c2[nH]c3ccc(C4CCN(CCS(C)(=O)=O)CC4)cc3c2C(C)C)cn(C)c(=O)c1Cl` [Example 107, 3-chloro-5-(3-isopropyl-5-(1-(2-(methylsulfonyl)ethyl)piperidin-4-yl)-1H-indol-2-yl)-1,4-dimethylpyridin-2(1H)-one], the IC50 against human TLR7 amounted to 6.6 nM; against human TLR9, 13.4 µM; at human TLR8, 4.4 nM.

As for `Cc1c(-c2[nH]c3ccc(C4CCN(CC(C)(C)O)CC4)c(F)c3c2C(C)C)cn(C)c(=O)c1Cl` [Example 327, 3-chloro-5-(4-fluoro-5-(1-(2-hydroxy-2-methylpropyl)piperidin-4-yl)-3-isopropyl-1H-indol-2-yl)-1,4-dimethylpyridin-2(1H)-one], the figures for the IC50 against human TLR7, on human TLR9 and on human TLR8 were 6 nM, 3.28 µM and 1.6 nM, respectively.

On to `Cc1cc(-c2[nH]c3ccc(C4CCN(C(C)(C)C(N)=O)CC4)cc3c2C(C)C)cn(C)c1=O` [Example 151, 2-(4-(2-(1,5-dimethyl-6-oxo-1,6-dihydropyridin-3-yl)-3-isopropyl-1H-indol-5-yl)piperidin-1-yl)-2-methylpropanamide], for which the results for the IC50 on human TLR7, against human TLR9 and against human TLR8 were 1.2 nM, 11 µM and 13.7 nM, respectively.

With `CCCN1CCC(c2ccc3[nH]c(-c4cn(C)c(=O)c(Cl)c4C)c(C(C)C)c3c2)CC1` [Example 242, 3-chloro-5-(3-isopropyl-5-(1-propylpiperidin-4-yl)-1H-indol-2-yl)-1,4-dimethylpyridin-2(1H)-one], the IC50 is 3.2 nM at human TLR7, 2.68 µM at human TLR9 and 5.1 nM at human TLR8.

As for `Cc1cc(-c2[nH]c3ccc(C4CCNCC4)cc3c2C(C)C)cn(C2CCOC2)c1=O` (stereo not drawn) [Example 42, 5-(3-isopropyl-5-(piperidin-4-yl)-1H-indol-2-yl)-3-methyl-1-(tetrahydrofuran-3-yl)pyridin-2(1H)-one], the IC50 on human TLR7 was found to be 40.9 nM; against human TLR9 it was 6.71 µM; against human TLR8, 134 nM.

`CCn1cc(-c2[nH]c3ccc(C4CCNCC4)cc3c2C(C)C)cc(C)c1=O` [Example 15, 1-ethyl-5-(3-isopropyl-5-(piperidin-4-yl)-1H-indol-2-yl)-3-methylpyridin-2(1H)-one]: the IC50 against human TLR7 was 1.9 nM; against human TLR9 it was 0.179 µM; on human TLR8, 3.3 nM.

For the compound `CC(C)c1c(-c2cc(N)c(=O)n(C)c2)[nH]c2ccc(C3CCNCC3)cc12` [Example 9, 3-amino-5-(3-isopropyl-5-(piperidin-4-yl)-1H-indol-2-yl)-1-methylpyridin-2(1H)-one], the IC50 against human TLR7 came to 50.8 nM; against human TLR9, 0.879 µM; against human TLR8 it was 11.5 nM.

Regarding `Cc1c(-c2[nH]c3ccc(C4CCNCC4)cc3c2C(C)C)cn(C)c(=O)c1Cl` [Example 31, 3-chloro-5-(3-isopropyl-5-(piperidin-4-yl)-1H-indol-2-yl)-1,4-dimethylpyridin-2(1H)-one], the IC50 came out at 1 nM on human TLR7, 1.12 µM against human TLR9 and 7 nM against human TLR8.

Regarding `Cc1cc(-c2[nH]c3ccc(C4CCN(CCCO)CC4)cc3c2C(C)C)cn(C)c1=O` [Example 85, 5-(5-(1-(3-hydroxypropyl)piperidin-4-yl)-3-isopropyl-1H-indol-2-yl)-1,3-dimethylpyridin-2(1H)-one], the values for the IC50 against human TLR7, on human TLR9 and against human TLR8 were 2.2 nM, 8.45 µM and 4.6 nM, respectively.

Consider `CNCCN1CCC(c2ccc3[nH]c(-c4cc(C)c(=O)n(C)c4)c(C(C)C)c3c2)CC1` [Example 176, 5-(3-isopropyl-5-(1-(2-(methylamino)ethyl)piperidin-4-yl)-1H-indol-2-yl)-1,3-dimethylpyridin-2(1H)-one], for which the figures for the IC50 against human TLR7, at human TLR9 and on human TLR8 were 1.3 nM, 0.177 µM and 1.3 nM, respectively.

Regarding `CC(C)c1c(-c2cc(-c3cncnc3)c(=O)n(C)c2)[nH]c2ccc(C3CCN(CC4CCOCC4)CC3)cc12` [Example 100, 5-(3-isopropyl-5-(1-((tetrahydro-2H-pyran-4-yl)methyl)piperidin-4-yl)-1H-indol-2-yl)-1-methyl-3-(pyrimidin-5-yl)pyridin-2(1H)-one], the figures for the IC50 at human TLR7, against human TLR9 and against human TLR8 were 21.5 nM, 3.06 µM and 2.3 nM, respectively.

For the compound `CC(C)c1c(-c2cc(-c3cccnc3)c(=O)n(C)c2)[nH]c2ccc(C3CCN(C(C)C)CC3)cc12` [Example 235, 5-(3-isopropyl-5-(1-isopropylpiperidin-4-yl)-1H-indol-2-yl)-1-methyl-[3,3′-bipyridin]-2(1H)-one], the half-maximal inhibitory concentration (IC50) came to 11 nM against human TLR7, 1.77 µM on human TLR9 and 5.2 nM against human TLR8.

In the case of `Cc1cc(-c2[nH]c3ccc(C4CCN(C5CCOC5)CC4)cc3c2C(C)C)nn(C)c1=O` (stereo not drawn) [Example 193, 6-(3-isopropyl-5-(1-(tetrahydrofuran-3-yl)piperidin-4-yl)-1H-indol-2-yl)-2,4-dimethylpyridazin-3(2H)-one], the values for the IC50 against human TLR7, on human TLR9 and against human TLR8 were 12.6 nM, 8.92 µM and 11.7 nM, respectively.
